The values that follow come from PubChem BioAssay AID1259407 (Chemical Carcinogenesis Research Information System (CCRIS), 2018).

Structures are written as SMILES. Activity calls are given as the source filed them. How the calls were made is not given here.

The test system of the data set is CCRIS mutagenicity, Ames/micronucleus/aberration tests. The experiment in a line: CCRIS mutagenicity studies.
The mark [1] stands for this setting: Test System: AMES SALMONELLA TYPHIMURIUM, Strain/Indicator: TA100, Metabolic Activation: RAT, LIVER, S-9, AROCLOR 1254, Method: STANDARD PLATE.

For `c1ccc2cc3cc4ccccc4cc3cc2c1`, the mutagenic call runs as follows: (Test System: AMES SALMONELLA TYPHIMURIUM, Strain/Indicator: TA98, Metabolic Activation: NONE, Method: STANDARD PLATE) “inactive; negative”; (Test System: AMES SALMONELLA TYPHIMURIUM, Strain/Indicator: TA98, Metabolic Activation: RAT, LIVER, S-9, 3-METHYLCHOLANTHRENE, Method: STANDARD PLATE) “active; positive”; (Test System: AMES SALMONELLA TYPHIMURIUM, Strain/Indicator: TA98, Metabolic Activation: RAT, LIVER, S-9, AROCLOR 1254, Method: STANDARD PLATE) “active; positive”; (Test System: AMES SALMONELLA TYPHIMURIUM, Strain/Indicator: TA100, Metabolic Activation: MOUSE, LIVER, S-9, 2,3,7,8-TETRACHLORODIBENZO-P-DIOXIN, Method: STANDARD PLATE) “active; positive”; (Test System: AMES SALMONELLA TYPHIMURIUM, Strain/Indicator: TA100, Metabolic Activation: MOUSE, LIVER, S-9, 3-METHYLCHOLANTHRENE, Method: STANDARD PLATE) “active; positive”; (Test System: AMES SALMONELLA TYPHIMURIUM, Strain/Indicator: TA100, Metabolic Activation: NONE, Method: STANDARD PLATE) “inactive; negative”. In addition, the mutagenic call is “active; positive” (Test System: AMES SALMONELLA TYPHIMURIUM, Strain/Indicator: TA100, Metabolic Activation: RAT, LIVER, S-9, 3-METHYLCHOLANTHRENE, Method: STANDARD PLATE); “active; positive” under setting [1]; “inactive; negative” (Test System: AMES SALMONELLA TYPHIMURIUM, Strain/Indicator: TA1535, Metabolic Activation: NONE, Method: STANDARD PLATE); “inactive; negative” (Test System: AMES SALMONELLA TYPHIMURIUM, Strain/Indicator: TA1535, Metabolic Activation: RAT, LIVER, S-9, 3-METHYLCHOLANTHRENE, Method: STANDARD PLATE); “inactive; negative” (Test System: AMES SALMONELLA TYPHIMURIUM, Strain/Indicator: TA1535, Metabolic Activation: RAT, LIVER, S-9, AROCLOR 1254, Method: STANDARD PLATE); “inactive; negative” (Test System: AMES SALMONELLA TYPHIMURIUM, Strain/Indicator: TA1537, Metabolic Activation: NONE, Method: STANDARD PLATE). Further, the mutagenic call by setting is: (Test System: AMES SALMONELLA TYPHIMURIUM, Strain/Indicator: TA1537, Metabolic Activation: RAT, LIVER, S-9, 3-METHYLCHOLANTHRENE, Method: STANDARD PLATE) “active; positive”; (Test System: AMES SALMONELLA TYPHIMURIUM, Strain/Indicator: TA1537, Metabolic Activation: RAT, LIVER, S-9, AROCLOR 1254, Method: STANDARD PLATE) “active; positive”; (Test System: AMES SALMONELLA TYPHIMURIUM, Strain/Indicator: TA1538, Metabolic Activation: NONE, Method: STANDARD PLATE) “inactive; negative”; (Test System: AMES SALMONELLA TYPHIMURIUM, Strain/Indicator: TA1538, Metabolic Activation: RAT, LIVER, S-9, 3-METHYLCHOLANTHRENE, Method: STANDARD PLATE) “active; positive”; (Test System: AMES SALMONELLA TYPHIMURIUM, Strain/Indicator: TA1538, Metabolic Activation: RAT, LIVER, S-9, AROCLOR 1254, Method: STANDARD PLATE) “active; positive”.

Take `O=C1OC(=O)c2c(Br)c(Br)c(Br)c(Br)c21`: the mutagenic call is, setting by setting: (Test System: AMES SALMONELLA TYPHIMURIUM, Strain/Indicator: TA98, Metabolic Activation: HAMSTER, LIVER, S-9, AROCLOR 1254 (10%), Method: PREINCUBATION) “inactive; negative”; (Test System: AMES SALMONELLA TYPHIMURIUM, Strain/Indicator: TA98, Metabolic Activation: NONE, Method: PREINCUBATION) “inactive; negative”; (Test System: AMES SALMONELLA TYPHIMURIUM, Strain/Indicator: TA98, Metabolic Activation: RAT, LIVER, S-9, AROCLOR 1254 (10%), Method: PREINCUBATION) “inactive; negative”; (Test System: AMES SALMONELLA TYPHIMURIUM, Strain/Indicator: TA100, Metabolic Activation: HAMSTER, LIVER, S-9, AROCLOR 1254 (10%), Method: PREINCUBATION) “inactive; negative”; (Test System: AMES SALMONELLA TYPHIMURIUM, Strain/Indicator: TA100, Metabolic Activation: NONE, Method: PREINCUBATION) “inactive; negative”; (Test System: AMES SALMONELLA TYPHIMURIUM, Strain/Indicator: TA100, Metabolic Activation: RAT, LIVER, S-9, AROCLOR 1254 (10%), Method: PREINCUBATION) “inactive; negative”. In addition, the mutagenic call reads like this: (Test System: AMES SALMONELLA TYPHIMURIUM, Strain/Indicator: TA1535, Metabolic Activation: HAMSTER, LIVER, S-9, AROCLOR 1254 (10%), Method: PREINCUBATION) “inactive; negative”; (Test System: AMES SALMONELLA TYPHIMURIUM, Strain/Indicator: TA1535, Metabolic Activation: NONE, Method: PREINCUBATION) “inactive; negative”; (Test System: AMES SALMONELLA TYPHIMURIUM, Strain/Indicator: TA1535, Metabolic Activation: RAT, LIVER, S-9, AROCLOR 1254 (10%), Method: PREINCUBATION) “inactive; negative”; (Test System: AMES SALMONELLA TYPHIMURIUM, Strain/Indicator: TA1537, Metabolic Activation: HAMSTER, LIVER, S-9, AROCLOR 1254 (10%), Method: PREINCUBATION) “inactive; negative”; (Test System: AMES SALMONELLA TYPHIMURIUM, Strain/Indicator: TA1537, Metabolic Activation: NONE, Method: PREINCUBATION) “inactive; negative”; (Test System: AMES SALMONELLA TYPHIMURIUM, Strain/Indicator: TA1537, Metabolic Activation: RAT, LIVER, S-9, AROCLOR 1254 (10%), Method: PREINCUBATION) “inactive; negative”.

Consider `CC1c2cc(F)ccc2-c2ccc(F)cc21`, for which the mutagenic call under setting [1] is “active; positive”.

For the compound `O=C/C=C/C=C/C(=O)O`, for the setting “Test System: CHINESE HAMSTER V-79, Strain/Indicator: V-79 (HGPRT)/8-AZAGUANINE, Metabolic Activation: NONE”, the mutagenic call is “active; positive”.
